Experimental data: publication PMC4256409, “Role of Phenylalanine and Valine^10 Residues in the Antimicrobial Activity and Cytotoxicity of Piscidin-1” (PLoS ONE, 2014)
Where no end group is shown, it is not given here.

Assays:
S. aureus KCTC1916 = assay type: cell-based, Staphylococcus aureus; conditions: KCTC1916, 16 h
B. subtilis KCTC3068 = assay type: cell-based, Bacillus subtilis; conditions: KCTC3068, 16 h
B. subtilis KCTC1022 = assay type: cell-based, Bacillus subtilis; conditions: KCTC1022, 16 h
MDRPA CCARM 2095 = assay type: cell-based, multidrug-resistant P. aeruginosa; conditions: broth microdilution, 37°C, 16 h, three independent experiments in triplicate, SD 14.0%
MDRPA CCARM 2002 = assay type: cell-based, multidrug-resistant P. aeruginosa; conditions: broth microdilution, 37°C, 16 h, three independent experiments in triplicate, SD 14.0%
MDRAB CCARM 12035 = assay type: cell-based, multidrug-resistant Acinetobacter baumanii; conditions: broth microdilution, 37°C, 16 h, three independent experiments in triplicate, SD 14.0%
MDRAB CCARM 12005 = assay type: cell-based, multidrug-resistant Acinetobacter baumanii; conditions: broth microdilution, 37°C, 16 h, three independent experiments in triplicate, SD 14.0%
[1] = tested on: Standard bacterial strains; assay type: cell-based; conditions: average over the 14 standard bacterial strains of Table 2
MDREC CCARM 1238 = assay type: cell-based, multidrug-resistant E. coli; conditions: broth microdilution, 37°C, 16 h, three independent experiments in triplicate, SD 14.0%
P. aeruginosa KCTC1637 = assay type: cell-based, Pseudomonas aeruginosa; conditions: KCTC1637, 16 h
[2] = tested on: Drug-resistant bacterial strains; conditions: average over the 18 drug-resistant bacterial strains of Table 3
From the text: Escherichia coli KCTC 1682, E. coli KCTC 2593, E. coli KCTC 2571, Salmonella typhimurium KCTC 1926, Pseudomonas aeruginosa KCTC 1637, P. aeruginosa KCTC 2004, P. aeruginosa KCTC 2513, Bacillus subtilis KCTC 3068, B. subtilis KCTC 1021, B. subtilis KCTC 1022, Staphylococcus epidermidis KCTC 1917, Staphylococcus aureus KCTC 1621, S. aureus KCTC 1916, and S. aureus KCTC 3881 were purchased from the Korean Collection for Type Cultures, Korea Research Institute of Bioscience & Biotechnology (Taejon, Korea). Methicillin-resistant S. aureus (MRSA) (CCARM 3089, CCARM 3090, CCARM 3108, CCARM 3114, and CCARM 3126), multidrug-resistant E. coli (MDREC) (CCARM 1229 and CCARM 1238), multidrug-resistant S. typhimurium (MDRST) (CCARM 8003, CCARM 8007, and CCARM 8009), multidrug-resistant Acinetobacter baumanii (MDRAB) (CCARM 12005, CCARM 12035, CCARM 12036, CCARM 12037), and multidrug-resistant P. aeruginosa (MDRPA) (CCARM 2002, CCARM 2003, CCARM 2095, and CCARM 2163) were obtained from the Culture Collection of Antibiotic-Resistant Microbes (CCARM) at Seoul Women’s University in Korea. The antimicrobial activities of the peptides against selected organisms, including three Gram-positive, three Gram-negative, and five antibiotic-resistant bacteria, were determined using a broth microdilution assay. Briefly, single colonies of bacteria and fungi were inoculated into Luria-Bertani (LB) medium and cultured overnight at 37°C. An aliquot of the culture was transferred to 10 mL of fresh LB and incubated for an additional 3–5 h at 37°C until it reached the mid-logarithmic phase. Two-fold serial dilutions of the peptides in 1% peptone were prepared. The serial dilutions (100 µL) were added to 100 µL of cells (2×10^6 colony-forming units (CFU)/mL) in 96-well microtiter plates and incubated at 37°C for 16 h. […] MIC values were calculated as the average of triplicate measurements from three independent assays.

E.coli KCTC2571 = assay type: cell-based, Escherichia coli; conditions: KCTC2571, 16 h
MDRPA CCARM 2163 = assay type: cell-based, multidrug-resistant P. aeruginosa; conditions: broth microdilution, 37°C, 16 h, three independent experiments in triplicate, SD 14.0%
MRSA CCARM3089 = assay type: cell-based, Methicillin-resistant S. aureus; conditions: CCARM3089, 16 h
MRSA CCARM 3090 = assay type: cell-based, Methicillin-resistant S. aureus; conditions: CCARM 3090, 16 h
MRSA CCARM 3114 = assay type: cell-based, Methicillin-resistant S. aureus; conditions: CCARM 3114, 16 h
B. subtilis KCTC1021 = assay type: cell-based, Bacillus subtilis; conditions: KCTC1021, 16 h
MDRST CCARM 8009 = assay type: cell-based, multidrug-resistant S. typhimurium; conditions: broth microdilution, 37°C, 16 h, three independent experiments in triplicate, SD 14.0%
MDRST CCARM 8007 = assay type: cell-based, multidrug-resistant S. typhimurium; conditions: broth microdilution, 37°C, 16 h, three independent experiments in triplicate, SD 14.0%
P. aeruginosa KCTC2513 = assay type: cell-based, Pseudomonas aeruginosa; conditions: KCTC2513, 16 h
E. coli KCTC2593 = assay type: cell-based, Escherichia coli; conditions: KCTC2593, 16 h
MDRPA CCARM 2003 = assay type: cell-based, multidrug-resistant P. aeruginosa; conditions: broth microdilution, 37°C, 16 h, three independent experiments in triplicate, SD 14.0%
MDRAB CCARM 12036 = assay type: cell-based, multidrug-resistant Acinetobacter baumanii; conditions: broth microdilution, 37°C, 16 h, three independent experiments in triplicate, SD 14.0%
P. aeruginosa KCTC2004 = assay type: cell-based, Pseudomonas aeruginosa; conditions: KCTC2004, 16 h
S. epidermidis KCTC1917 = assay type: cell-based, Staphylococcus epidermidis; conditions: KCTC1917, 16 h
MDRST CCARM 8003 = assay type: cell-based, multidrug-resistant S. typhimurium; conditions: broth microdilution, 37°C, 16 h, three independent experiments in triplicate, SD 14.0%
S. aureus KCTC1621 = assay type: cell-based, Staphylococcus aureus; conditions: KCTC1621, 16 h
MDREC CCARM 1229 = assay type: cell-based, multidrug-resistant E. coli; conditions: broth microdilution, 37°C, 16 h, three independent experiments in triplicate, SD 14.0%
E. coli KCTC1682 = assay type: cell-based, Escherichia coli; conditions: KCTC1682, 16 h
MRSA CCARM 3126 = assay type: cell-based, Methicillin-resistant S. aureus; conditions: CCARM 3126, 16 h
MRSA CCARM 3108 = assay type: cell-based, Methicillin-resistant S. aureus; conditions: CCARM 3108, 16 h
MDRAB CCARM 12037 = assay type: cell-based, multidrug-resistant Acinetobacter baumanii; conditions: broth microdilution, 37°C, 16 h, three independent experiments in triplicate, SD 14.0%
S. aureus KCTC3881 = assay type: cell-based, Staphylococcus aureus; conditions: KCTC3881, 16 h
S. typhimurium KCTC1926 = assay type: cell-based, Salmonella typhimurium; conditions: KCTC1926, 16 h

Sequence | MIC (S. aureus KCTC1916) [µM] | MIC (B. subtilis KCTC3068) [µM] | MIC (B. subtilis KCTC1022) [µM] | MIC (MDRPA CCARM 2095) [µM] | MIC (MDRPA CCARM 2002) [µM] | MIC (MDRAB CCARM 12035) [µM] | MIC (MDRAB CCARM 12005) [µM] | Average MIC [1] [µM] | MIC (MDREC CCARM 1238) [µM] | MIC (P. aeruginosa KCTC1637) [µM] | Average MIC [2] [µM] | MIC (E.coli KCTC2571) [µM] | MIC (MDRPA CCARM 2163) [µM] | MIC (MRSA CCARM3089) [µM] | MIC (MRSA CCARM 3090) [µM] | MIC (MRSA CCARM 3114) [µM] | MIC (B. subtilis KCTC1021) [µM] | MIC (MDRST CCARM 8009) [µM] | MIC (MDRST CCARM 8007) [µM] | MIC (P. aeruginosa KCTC2513) [µM] | other results
FKHHIFRGIKHVGKTIHRLVTG [Pis-F2K/V10K] | 4.0 | 2.0 | 4.0 | 2.0 | 2.0 | 2.0 | 2.0 | 4.0 | 8.0 | 1.0 | 5.8 | 4.0 | 2.0 | 8.0 | 8.0 | 8.0 | 8.0 | 8.0 | 8.0 | 8.0 | MIC (E. coli KCTC2593): 4.0 µM; MIC (MDRPA CCARM 2003): 2.0 µM; MIC (MDRAB CCARM 12036): 2.0 µM; MIC (P. aeruginosa KCTC2004): 8.0 µM; MIC (S. epidermidis KCTC1917): 4.0 µM; MIC (MDRST CCARM 8003): 16 µM; MIC (S. aureus KCTC1621): 2.0 µM; MIC (MDREC CCARM 1229): 8.0 µM; MIC (E. coli KCTC1682): 1.0 µM; MIC (MRSA CCARM 3126): 8.0 µM; MIC (MRSA CCARM 3108): 8.0 µM; MIC (MDRAB CCARM 12037): 2.0 µM; MIC (S. aureus KCTC3881): 4.0 µM; MIC (S. typhimurium KCTC1926): 2.0 µM
KFHHIFRGIVHVGKTIHRLVTG [Pis-F1K] | 2.0 | 2.0 | 1.0 | 2.0 | 2.0 | 2.0 | 2.0 | 2.6 | 8.0 | 4.0 | 4.7 | 2.0 | 2.0 | 8.0 | 8.0 | 8.0 | 2.0 | 4.0 | 4.0 | 4.0 | MIC (E. coli KCTC2593): 2.0 µM; MIC (MDRPA CCARM 2003): 2.0 µM; MIC (MDRAB CCARM 12036): 2.0 µM; MIC (P. aeruginosa KCTC2004): 4.0 µM; MIC (S. epidermidis KCTC1917): 2.0 µM; MIC (MDRST CCARM 8003): 4.0 µM; MIC (S. aureus KCTC1621): 2.0 µM; MIC (MDREC CCARM 1229): 8.0 µM; MIC (E. coli KCTC1682): 4.0 µM; MIC (MRSA CCARM 3126): 8.0 µM; MIC (MRSA CCARM 3108): 8.0 µM; MIC (MDRAB CCARM 12037): 2.0 µM; MIC (S. aureus KCTC3881): 2.0 µM; MIC (S. typhimurium KCTC1926): 4.0 µM
FFHHIKRGIKHVGKTIHRLVTG [Pis-F6K/V10K] | 4.0 | 4.0 | 4.0 | 2.0 | 4.0 | 4.0 | 4.0 | 5.0 | 8.0 | 4.0 | 6.4 | 4.0 | 2.0 | 8.0 | 8.0 | 8.0 | 8.0 | 8.0 | 8.0 | 8.0 | MIC (E. coli KCTC2593): 4.0 µM; MIC (MDRPA CCARM 2003): 4.0 µM; MIC (MDRAB CCARM 12036): 4.0 µM; MIC (P. aeruginosa KCTC2004): 8.0 µM; MIC (S. epidermidis KCTC1917): 4.0 µM; MIC (MDRST CCARM 8003): 16 µM; MIC (S. aureus KCTC1621): 4.0 µM; MIC (MDREC CCARM 1229): 8.0 µM; MIC (E. coli KCTC1682): 2.0 µM; MIC (MRSA CCARM 3126): 8.0 µM; MIC (MRSA CCARM 3108): 8.0 µM; MIC (MDRAB CCARM 12037): 4.0 µM; MIC (S. aureus KCTC3881): 4.0 µM; MIC (S. typhimurium KCTC1926): 8.0 µM
